Assay results taken from patent US20080096807A1, “Cyclic vasoactive intestinal peptide receptor-2 agonists” (priority 2006, published 2008).
Where two headings read alike, the source gives them in different places. Bridge positions count the residues as written; N and C are the ends. Square brackets hold non-standard residues; d marks the D form. Peptide text beside a SMILES is read from it. ξ: configuration not given here. Thr(3ξ) = CC(O)[C@H](N)C(=O)O; αMeV = CC(C)[C@](C)(N)C(=O)O; Nle = CCCC[C@H](N)C(=O)O

Tests used:
[1] = target: T1, human neutrophil elastase (Homo sapiens, UniProt P08246); test: Peptide stability to neutrophil elastase (RP HPLC ESI MS); conditions: halftime with human neutrophil elastase 1 to 2 μg/mL in PBS, ambient temperature, normalized to halftime of the reference standard
T1 sequence (P08246 30-247 limits assumed): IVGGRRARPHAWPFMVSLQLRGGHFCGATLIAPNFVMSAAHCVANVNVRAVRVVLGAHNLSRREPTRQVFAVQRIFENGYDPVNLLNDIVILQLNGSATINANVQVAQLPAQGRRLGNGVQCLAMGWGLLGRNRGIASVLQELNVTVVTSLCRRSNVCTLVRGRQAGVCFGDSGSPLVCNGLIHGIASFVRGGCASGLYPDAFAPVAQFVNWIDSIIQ
Experimental: The proteolytic stabilities of peptide analogs were established with reversed phase high pressure liquid chromatography (RP HPLC) electrospray ionization mass spectrometry (ESI MS). Peptide analogs were incubated with human neutrophile elastase and the quantity of undigested analogs was determined by ESI MS at appropriate time points. Multiple peptide analogs could be included in one experiment as long as they could be differentiated by HPLC retention time and/or by molecular weight. Ac-His Ac-[sequence]Nle-[sequence]NH2 was used in all experiments as a control and as a reference standard. The simultaneous use of multiple peptide analogs together with a reference standard allowed for compensation for variations in the proteolytic fidelity of the enzyme over the multiple experiments. Integrated ion currents obtained for the individual undigested peptide were used for quantitation. For calculation of halftime first-order kinetic behavior was assumed and all calculations were normalized to the halftime of the reference standard.
Peptide stock solutions were prepared in water to a concentration of 2.5 mg/mL. Unless in use, all stock solutions were kept at −20° C. […] Concentrations of the peptide analogs were adjusted accordingly. In order to do the proteolytic digestion, peptides were dissolved in phosphate buffered saline (PBS) to a concentration of 0.1 mg/mL. As many as six different peptide analogs were mixed into one 50 μL reaction volume. The reference standard was added to all experiments as a reference and internal standard. Elastase (Human Neutrophil, Calbiochem, Cat # 324681) was added from an elastase stock solution to a concentration of 1 to 2 μg/mL. Different amounts of the enzyme were chosen to compensate for the differences in the proteolytic stabilities of the peptide analogs. Previously, a stock solution of elastase was prepared in water at a concentration of 1 mg/mL. Small aliquots of the enzyme stock solution were kept at −20° C. to better maintain the enzyme activity by limiting the number of thaw and freeze cycles.
The digestion was done at ambient temperature in an autosampler tube within the autosampler of the HPLC system (Agilent 1100 Series). For a time course, 5 μL aliquots were injected in 70 minute intervals onto the reversed phase HPLC column (Phenomenex, Luna C18, 3μ, 100 ↑, 150×2.00 mm). For the starting time point an aliquot was injected just prior to the addition of the proteolytic enzyme. A total of eight time points could be recorded from one experiment, including the starting point. Peptides were separated on the reversed phase column with a 50 minute gradient of 5% to 30% organic phase. The aqueous phase was 0.05% (v/v) of trifluoroacetic acid in water and the organic one was 0.045% (v/v) of trifluoroacetic acid in acetonitrile. Absorbances were recorded at 214 and 280 nm respectively. All of the column effluent was introduced into the turbo V source of the electrospray ionization mass spectrometer (ABI 4000 QTrap LC/MS/MS System). Mass spectra were acquired in Q3MS mode in a mass range to include all triply charged ions of the non degraded peptide analogs. Care was taken to assure that peptide analogs could clearly be differentiated either by the chromatographic retention time or by the difference in molecular weight. Relative quantities of the respective undigested peptide analog were calculated from the integrated total ion current. A window of 2.5 Da was chosen and the manufacturer's software was used to integrate the individual ion currents. The overall halftime of an individual peptide analog was calculated by assuming first-order kinetic behavior and was normalized with respect to the halftime of the reference standard.

VPAC2 receptor = target: T2, VPAC2 receptor (Homo sapiens, UniProt P41587); test: Sup-T1 cAMP agonist assay; type: cell-based
T2 construct: The human T-lymphoid cell line Sup-Ti, which expresses the VPAC2 receptor; host or cells: Sup-T1 (Sup-Ti [sic]) human T-lymphoid cell line
T2 sequence (P41587 24-438): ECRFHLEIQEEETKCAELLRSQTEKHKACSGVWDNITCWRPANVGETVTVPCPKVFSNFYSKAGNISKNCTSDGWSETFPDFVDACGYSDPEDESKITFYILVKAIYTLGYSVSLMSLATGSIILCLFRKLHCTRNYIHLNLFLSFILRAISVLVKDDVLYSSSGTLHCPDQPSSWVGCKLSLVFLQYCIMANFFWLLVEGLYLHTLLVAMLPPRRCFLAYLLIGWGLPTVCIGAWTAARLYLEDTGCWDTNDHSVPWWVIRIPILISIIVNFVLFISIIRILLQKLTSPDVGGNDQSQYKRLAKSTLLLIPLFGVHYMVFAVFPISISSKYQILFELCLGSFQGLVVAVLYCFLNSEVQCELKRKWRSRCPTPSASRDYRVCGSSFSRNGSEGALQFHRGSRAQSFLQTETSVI
Experimental: The human T-lymphoid cell line Sup-Ti, which expresses the VPAC2 receptor, was obtained from the American Type Culture Collection (ATCC, CRL-1942) and maintained in growth medium at densities between 0.2 and 2×10^6 cells/ml in a 37° C. CO2 incubator. The growth medium was RPMI 1640 (Invitrogen) supplemented with 25 mM HEPES buffer and 10% fetal bovine serum (Gemini Bioproducts).
To evaluate VPAC2 agonist compound activity, cells in log-phase growth were washed once with growth medium at room temperature and plated into 96-well plates at a density of 4×10^4 cells per well in 150 uL of growth medium. Fifty uL of the compounds to be tested, prepared at appropriate concentrations in growth medium, were then added to designated wells. After 5 min at room temperature, the cells were lysed by adding 25 uL of lysis reagent 1A (cAMP Biotrak EIA system, Amersham Biosciences, RPN225) to each well. The 96-well plates were kept at room temperature for 10 min with shaking and then stored at 4° C. until analysis for cAMP (within 2 hr).
Cyclic AMP levels were determined in 100 uL of each lysate using the cAMP Biotrak Enzymeimmunoassay (EIA) kit according to the manufacture's instructions (Amersham Biosciences, RPN225). The activity of each VPAC2 agonist compound (EC50 value) was estimated by fitting the 7-concentration dose response data to a sigmoidal dose-response equation provided by the GraphPad Prism program (GraphPad Software, Inc.).

[2] = human T-lymphoid cell line Sup-T1 expressing VPAC2 receptor, cAMP EIA, 5 min at room temperature, read-out: Sup-T1 cAMP EC50

Row | Relative elastase stability [1] | EC50 (VPAC2 receptor; [2]) [nM] | Structure (SMILES) | EC50 (VPAC2 receptor) [nM]
1 | 3.6 | – | CCCC[C@H](NC(=O)[C@H](CCC(N)=O)NC(=O)[C@H](CCCCN)NC(=O)[C@H](CCCNC(=N)N)NC(=O)[C@H](CC(C)C)NC(=O)[C@H](CCCCN)NC(=O)[C@@H](NC(=O)[C@H](Cc1ccc(O)cc1)NC(=O)[C@H](CC(N)=O)NC(=O)[C@H](CCC(=O)O)NC(=O)[C@@H](NC(=O)[C@H](Cc1ccccc1)NC(=O)[C@@](C)(NC(=O)[C@H](C)NC(=O)[C@H](CC(=O)O)NC(=O)[C@H](C)NC(=O)[C@H](Cc1c[nH]cn1)NC(C)=O)C(C)C)C(C)O)C(C)O)C(=O)N[C@@H](C)C(=O)N[C@@H](C)C(=O)N[C@@H](CCCCN)C(=O)N[C@H]1CCCCNC(=O)C[C@@H](C(=O)N[C@@H](CC(C)C)C(=O)N[C@@H](CC(C)C)C(=O)N[C@@H](CCCCN)C(=O)NCC(=O)NCC(=O)N[C@H](C(N)=O)C(C)O)NC(=O)[C@H](CC(N)=O)NC(=O)[C@H](CC(C)C)NC(=O)[C@H](Cc2ccc(O)cc2)NC1=O (stereo partly drawn) [Example 23, Ac-His-Ala-Asp-Ala-MeVal-Phe-Thr-Glu-Asn-Tyr-Thr-Lys-Leu-Arg-Lys-Gln-Nle-Ala-Ala-Lys-Lys-Tyr-Leu-Asn-Asp-Leu-Leu-Lys-Gly-Gly-Thr-NH2] | –
2 | 1.8 | – | CCCC[C@H](NC(=O)[C@H](CCCNC(=N)N)NC(=O)[C@H](CCCCN)NC(=O)[C@H](CCCNC(=N)N)NC(=O)[C@H](CC(C)C)NC(=O)[C@H](CCCCN)NC(=O)[C@@H](NC(=O)[C@H](Cc1ccc(O)cc1)NC(=O)[C@H](CC(N)=O)NC(=O)[C@H](CCC(=O)O)NC(=O)[C@@H](NC(=O)[C@H](Cc1ccccc1)NC(=O)[C@@](C)(NC(=O)[C@H](C)NC(=O)[C@H](CC(=O)O)NC(=O)[C@H](CO)NC(=O)[C@H](Cc1c[nH]cn1)NC(C)=O)C(C)C)C(C)O)C(C)O)C(=O)N[C@@H](C)C(=O)N[C@@H](C)C(=O)N[C@@H](CCCCN)C(=O)N[C@H]1CCCCNC(=O)C[C@@H](C(=O)N[C@@H](CC(C)C)C(=O)N[C@@H](CCCCN)C(=O)N[C@@H](CCCCN)C(=O)NCC(=O)NCC(=O)N[C@H](C(N)=O)C(C)O)NC(=O)[C@H](CC(N)=O)NC(=O)[C@H](CC(C)C)NC(=O)[C@H](Cc2ccc(O)cc2)NC1=O (stereo partly drawn) [Example 22, Ac-His-Ser-Asp-Ala-MeVal-Phe-Thr-Glu-Asn-Tyr-Thr-Lys-Leu-Arg-Lys-Arg-Nle-Ala-Ala-Lys-Lys-Tyr-Leu-Asn-Asp-Leu-Lys-Lys-Gly-Gly-Thr-NH2] | –
3 | 3.4 | – | CCCC[C@H](NC(=O)[C@H](CCC(N)=O)NC(=O)[C@H](CCCCN)NC(=O)[C@H](CCCNC(=N)N)NC(=O)[C@H](CC(C)C)NC(=O)[C@H](CCCCN)NC(=O)[C@@H](NC(=O)[C@H](Cc1ccc(O)cc1)NC(=O)[C@H](CC(N)=O)NC(=O)[C@H](CCC(=O)O)NC(=O)[C@@H](NC(=O)[C@H](Cc1ccccc1)NC(=O)[C@@](C)(NC(=O)[C@H](C)NC(=O)[C@H](CC(=O)O)NC(=O)[C@H](CO)NC(=O)[C@H](Cc1c[nH]cn1)NC(C)=O)C(C)C)C(C)O)C(C)O)C(=O)N[C@@H](C)C(=O)N[C@@H](C)C(=O)N[C@@H](CCCCN)C(=O)N[C@H]1CCCCNC(=O)C[C@@H](C(=O)N[C@@H](CC(C)C)C(=O)N[C@@H](CC(C)C)C(=O)N[C@@H](CCCCN)C(=O)NCC(=O)NCC(=O)N[C@H](C(N)=O)C(C)O)NC(=O)[C@H](CC(N)=O)NC(=O)[C@H](CC(C)C)NC(=O)[C@H](Cc2ccc(O)cc2)NC1=O (stereo partly drawn) [Example 20, Ac-His-Ser-Asp-Ala-MeVal-Phe-Thr-Glu-Asn-Tyr-thr-Lys-Leu-Arg-Lys-Gln-Nle-Ala-Ala-Lys-Lys-Tyr-Leu-Asn-Asp-Leu-Leu-Lys-Gly-Gly-Thr-NH2] (Ac-HSDA[αMeV]F[Thr(3ξ)]ENY[Thr(3ξ)]KLRKQ[Nle]AAKKYLNDLLKGG[Thr(3ξ)]-NH2; lactam 21-25) | –
4 | 5.7 | – | CCCC[C@H](NC(=O)[C@H](CCC(N)=O)NC(=O)[C@H](CCCCN)NC(=O)[C@H](CCCNC(=N)N)NC(=O)[C@H](CC(C)C)NC(=O)[C@H](CCCCN)NC(=O)[C@@H](NC(=O)[C@H](Cc1ccc(O)cc1)NC(=O)[C@H](CC(N)=O)NC(=O)[C@H](CCC(=O)O)NC(=O)[C@@H](NC(=O)[C@H](Cc1ccccc1)NC(=O)[C@@](C)(NC(=O)[C@H](C)NC(=O)[C@H](CC(=O)O)NC(=O)[C@H](C)NC(=O)[C@H](Cc1c[nH]cn1)NC(C)=O)C(C)C)C(C)O)C(C)O)C(=O)N[C@@H](C)C(=O)N[C@@H](C)C(=O)N[C@@H](CCCCN)C(=O)N[C@H]1CCCCNC(=O)C[C@@H](C(=O)N[C@@H](CC(C)C)C(=O)N[C@@H](CCCCN)C(=O)N[C@@H](CCCCN)C(=O)NCC(=O)NCC(=O)N[C@H](C(N)=O)C(C)O)NC(=O)[C@H](CC(N)=O)NC(=O)[C@H](CC(C)C)NC(=O)[C@H](Cc2ccc(O)cc2)NC1=O (stereo partly drawn) [Example 21, Ac-His-Ala-Asp-Ala-MeVal-Phe-Thr-Glu-Asn-Tyr-Thr-Lys-Leu-Arg-Lys-Gln-Nle-Ala-Ala-Lys-Lys-Tyr-Leu-Asn-Asp-Leu-Lys-Lys-Gly-Gly-Thr-NH2] | –

The remaining lines, values behind:

Row | Structure (SMILES) | Relative elastase stability [1] | EC50 (VPAC2 receptor; [2]) [nM] | EC50 (VPAC2 receptor) [nM]
5 | CCCC[C@H](NC(=O)[C@H](CCC(N)=O)NC(=O)[C@H](CCCCN)NC(=O)[C@H](CCCNC(=N)N)NC(=O)[C@H](CC(C)C)NC(=O)[C@H](CCCCN)NC(=O)[C@@H](NC(=O)[C@H](Cc1ccc(O)cc1)NC(=O)[C@H](CC(N)=O)NC(=O)[C@H](CCC(=O)O)NC(=O)[C@@H](NC(=O)[C@H](Cc1ccccc1)NC(=O)[C@@H]1CCCN1C(=O)[C@H](C)NC(=O)[C@H](CC(=O)O)NC(=O)[C@H](CO)NC(=O)[C@H](Cc1c[nH]cn1)NC(C)=O)C(C)O)C(C)O)C(=O)N[C@@H](C)C(=O)N[C@@H](C)C(=O)N[C@@H](CCCCN)C(=O)N[C@H]1CCCCNC(=O)C[C@@H](C(=O)N[C@@H](CC(C)C)C(=O)N[C@@H](CCCCN)C(=O)N[C@@H](CCCCN)C(=O)NCC(=O)NCC(=O)N[C@H](C(N)=O)C(C)O)NC(=O)[C@H](CC(N)=O)NC(=O)[C@H](CC(C)C)NC(=O)[C@H](Cc2ccc(O)cc2)NC1=O (stereo partly shown) [Example 5] (Ac-HSDAPF[Thr(3ξ)]ENY[Thr(3ξ)]KLRKQ[Nle]AAKKYLNDLKKGG[Thr(3ξ)]-NH2; lactam 21-25) | 4.9 | 1210 | –
6 | CCCC[C@H](NC(=O)[C@H](CCC(N)=O)NC(=O)[C@H](CCCCN)NC(=O)[C@H](CCCNC(=N)N)NC(=O)[C@H](CC(C)C)NC(=O)[C@H](CCCCN)NC(=O)[C@@H](NC(=O)[C@H](Cc1ccc(O)cc1)NC(=O)[C@H](CC(N)=O)NC(=O)[C@H](CCC(=O)O)NC(=O)[C@@H](NC(=O)[C@H](Cc1ccccc1)NC(=O)[C@H](CCC(N)=O)NC(=O)[C@H](C)NC(=O)[C@H](CC(=O)O)NC(=O)[C@H](CO)NC(=O)[C@H](Cc1c[nH]cn1)NC(C)=O)C(C)O)C(C)O)C(=O)N[C@@H](C)C(=O)N[C@@H](C)C(=O)N[C@@H](CCCCN)C(=O)N[C@H]1CCCCNC(=O)C[C@@H](C(=O)N[C@@H](CC(C)C)C(=O)N[C@@H](CCCCN)C(=O)N[C@@H](CCCCN)C(=O)NCC(=O)NCC(=O)N[C@H](C(N)=O)C(C)O)NC(=O)[C@H](CC(N)=O)NC(=O)[C@H](CC(C)C)NC(=O)[C@H](Cc2ccc(O)cc2)NC1=O (stereo partly shown) [Example 4] (Ac-HSDAQF[Thr(3ξ)]ENY[Thr(3ξ)]KLRKQ[Nle]AAKKYLNDLKKGG[Thr(3ξ)]-NH2; lactam 21-25) | 3.9 | 85 | –
7 | CCCC[C@H](NC(=O)[C@H](CCCNC(=N)N)NC(=O)[C@H](CCCCN)NC(=O)[C@H](CCCNC(=N)N)NC(=O)[C@H](CC(C)C)NC(=O)[C@H](CCCCN)NC(=O)[C@@H](NC(=O)[C@H](Cc1ccc(O)cc1)NC(=O)[C@H](CC(N)=O)NC(=O)[C@H](CCC(=O)O)NC(=O)[C@@H](NC(=O)[C@H](Cc1ccccc1)NC(=O)[C@H](CO)NC(=O)[C@H](C)NC(=O)[C@H](CC(=O)O)NC(=O)[C@H](CO)NC(=O)[C@H](Cc1c[nH]cn1)NC(C)=O)[C@@H](C)O)[C@@H](C)O)C(=O)N[C@@H](C)C(=O)N[C@@H](C)C(=O)N[C@@H](CCCCN)C(=O)N[C@H]1CCCCNC(=O)C[C@@H](C(=O)N[C@@H](CC(C)C)C(=O)N[C@@H](CC(C)C)C(=O)N[C@@H](CC(N)=O)C(=O)NCC(=O)NCC(=O)N[C@H](C(N)=O)[C@@H](C)O)NC(=O)[C@H](CC(N)=O)NC(=O)[C@H](CC(C)C)NC(=O)[C@H](Cc2ccc(O)cc2)NC1=O [Example 14] (Ac-HSDASFTENYTKLRKR[Nle]AAKKYLNDLLNGGT-NH2; lactam 21-25) | 4.5 | – | 94.1
